According to patent publication US20250340561A1, “QUINAZOLINE COMPOUND FOR INDUCING DEGRADATION OF G12D MUTANT KRAS PROTEIN” (Astellas Pharma Inc., priority 2021, published 2025):
Counter-ions that a name gives are not always drawn.

What follows are compounds tested against T1, KRAS G12D (Homo sapiens, UniProt P01116, G12D) (assay: Test Example 1-1: KRAS degradation action in AsPC-1, sandwich ELISA). Conditions: AsPC-1 cells, 24 hours treatment, corrected with β-actin, 0% = 10 μM Example No. 7.
T1 construct: host or cells: AsPC-1 human pancreatic cancer cells
T1 sequence (P01116 1-188 isoform P01116-2 G12D): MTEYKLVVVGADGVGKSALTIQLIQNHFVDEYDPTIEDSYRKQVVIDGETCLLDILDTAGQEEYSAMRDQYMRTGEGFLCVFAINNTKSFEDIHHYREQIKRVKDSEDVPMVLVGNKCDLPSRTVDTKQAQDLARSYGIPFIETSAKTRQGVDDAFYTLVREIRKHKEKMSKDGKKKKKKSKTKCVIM
Format: cell-based
Method: Test Example 1-1: Evaluation of KRAS Degradation Action on Human G12D Mutant KRAS-Positive Pancreatic Cancer Line AsPC-1
The KRAS degradation action of test compounds was evaluated by measuring the expression levels of KRAS G12D by a sandwich ELISA method.
AsPC-1 cells (ATCC, CRL-1682) were seeded at 90 μL per well on a 96-well plate (from IWAKI) to give 1.8×10^4 cells per well. As for the cell culture conditions, RPMI 1640 medium (from Merck) containing 10% fetal bovine serum (from Cytiva) was used in the presence of 5% CO2 at 37° C.
The next day, the test compounds (10 points having final concentrations in the range of 10 μM to 0.3 nM) were diluted 100-fold with a fresh medium and were added at 10 μL per well. The same treatments were each applied to 4 wells. In addition, in production of the sandwich ELISA plate, a capture antibody (anti-KRAS antibody, from LS Bio) mixed in Phosphate Buffered Saline [PBS; from FUJIFILM Wako Pure Chemical Corporation] in 1,000-fold dilution was added at 20 μL per well to a Maxisorp 384-well plate (from Thermo Scientific), and after attaching a seal, the plate was allowed to stand at 4° C. overnight.
After 24 hours of the test compound treatment, the culture supernatant was discarded. Immediately, a cytolytic solution (produced by adding, to a RIPA buffer [from Thermo Scientific], a Halt Protease Phosphatese Inhibitor Cocktail [from Thermo Scientific] and Benzonase Nuclease [from Merck] in amounts of 1/100 and 1/500, respectively) was added at 50 μL per well, and the cells were lysed. Then, equally treated 4 wells were combined to prepare a cell lysate sample of 200 μL in total. For KRAS detection, the Maxisorp 384-well plate which had been treated with the capture antibody since the previous day was washed (twice with 25 μL each) with 0.05% Tween-20-containing PBS (from Thermo Scientific; 20×PBS Tween-20 was diluted 20-fold with ion exchange water and used) and was treated with a blocking solution (Intercept Blocking Buffer; from LI-COR Biosciences) for 60 minutes, and then, the cell lysate samples were added at 20 μL per well. For 3-actin detection, the cell lysate samples were added as they were at 20 μL per well to the Maxisorp 384-well plate, and after attaching a seal, the plate was allowed to stand at 4° C. overnight.
The next day, after washing the KRAS detection plate with 0.05% Tween-20-containing PBS, an anti-Ras (G12D mutant specific) antibody (from Cell Signaling Technology) diluted 1,000-fold with a blocking solution was added at 20 μL per well as a detection antibody, and the plate was allowed to stand for 5 hours at room temperature. Then, the plate was centrifuged to remove the supernatant (using a centrifugal dehydrator machine, the supernatant was removed by the same method hereinafter) and was washed with 0.05% Tween-20-containing PBS. Then, an anti-Rabbit IgG […] antibody (from Cell Signaling Technology) diluted 1,000-fold with a blocking solution was added at 20 μL per well as a secondary antibody, and the plate was allowed to stand for 1 hour at room temperature. The plate was centrifuged to remove the supernatant and was washed with 0.05% Tween-20-containing PBS. Then, a BM chemiluminescent ELISA substrate (from Merck) was added at 20 μL per well, and the amounts of luminescence were measured with 2103 EnVision (from PerkinElmer). In addition, the 3-actin detection plate was washed with 0.05% Tween-20-containing PBS and was treated with a blocking solution for 60 minutes, and then, an anti-β-actin antibody (from Abcam) diluted 1,000-fold with a blocking solution was added at 20 μL per well as a detection antibody. The plate was allowed to stand for 5 hours at room temperature. Then, the plate was centrifuged to remove the supernatant and washed with 0.05% Tween-20-containing PBS, and then, an anti-Mouse IgG RP-linked antibody (from Cell Signaling Technology) diluted 1,000-fold with a blocking solution was added at 20 μL per well as a secondary antibody. […]
`Cc1ncsc1-c1ccc([C@H](CO)NC(=O)[C@@H]2C[C@@H](O)CN2C(=O)[C@H](C(C)C)n2cc(-c3ccc(COc4c(-c5c(C)c(F)cc6[nH]ncc56)c(C5CC5)cc5c(N6C[C@@H]7C[C@H]6CN7)nc(OC6CCN(CC(F)F)CC6)nc45)cc3)nn2)cc1` [Example 21] gave a DC50 of 72 nM. For `Cc1ncsc1-c1ccc([C@@H](NC(=O)[C@@H]2C[C@@H](O)CN2C(=O)[C@H](C(C)C)n2cc(-c3ccc(COc4c(-c5c(C)c(F)cc6[nH]ncc56)c(C5CC5)cc5c(N6C[C@@H]7C[C@H]6CN7)nc(OC6CCOCC6)nc45)cc3)nn2)C(F)F)cc1` [Example 16], the DC50 was 188 nM. In the case of `Cc1ncsc1-c1ccc([C@H](CO)NC(=O)[C@@H]2C[C@@H](O)CN2C(=O)C(C(C)C)n2cc(-c3ccc(COc4c(-c5c(C)c(F)cc6[nH]ncc56)c(C5CC5)cc5c(N6C[C@@H]7C[C@H]6CN7)nc(OC6CCOCC6)nc45)cc3)cn2)cc1` (single isomer, unassigned) [Example 11], the DC50 is reported as 178 nM. For `Cc1c(F)cc2[nH]ncc2c1-c1c(C2CC2)cc2c(N3C[C@@H]4C[C@H]3CN4)nc(OC3CCOCC3)nc2c1OCc1ccc(-c2cn([C@H](C(=O)N3C[C@H](O)C[C@H]3C(=O)N[C@@H](CO)c3ccc(-c4scnc4CO)cc3)C(C)C)nn2)cc1` [Example 18, (4R)-1-[(2S)-2-(4-{4-[({6-cyclopropyl-4-[(1S,4S)-2,5-diazabicyclo[2.2.1]heptan-2-yl]-7-(6-fluoro-5-methyl-1H-indazol-4-yl)-2-[(oxan-4-yl)oxy]quinazolin-8-yl}oxy)methyl]phenyl}-1H-1,2,3-triazol-1-yl)-3-methylbutanoyl]-4-hydroxy-N-[(1R)-2-hydroxy-1-{4-[4-(hydroxymethyl)-1,3-thiazol-5-yl]phenyl}ethyl]-L-prolinamide n hydrochloride], the DC50 was 74 nM. For `Cc1ncsc1-c1ccc([C@H](C)NC(=O)[C@@H]2C[C@@H](O)CN2C(=O)[C@H](C(C)C)n2cc(-c3ccc(COc4c(-c5c(C)c(F)cc6[nH]ncc56)c(C5CC5)cc5c(N6C[C@@H]7C[C@H]6CN7)nc(OC6CCOCC6)nc45)cc3)nn2)cc1` [Example 9], the DC50 was 77 nM. For `Cc1ncsc1-c1ccc([C@H](CO)NC(=O)[C@@H]2C[C@@H](O)CN2C(=O)[C@H](C(C)C)n2cc(-c3ccc(COc4c(-c5c(C)c(F)cc6[nH]ncc56)c(C5CC5)cc5c(N6C[C@@H]7C[C@H]6CN7)nc(OC6CCN(C7COC7)CC6)nc45)cc3)nn2)cc1` [Example 24], the DC50 was 103 nM. `Cc1ncsc1-c1ccc([C@H](CO)NC(=O)[C@@H]2C[C@@H](O)CN2C(=O)[C@H](C(C)C)N2Cc3cc(COc4c(-c5c(C)c(F)cc6[nH]ncc56)c(C5CC5)cc5c(N6C[C@@H]7C[C@H]6CN7)nc(OC6CCOCC6)nc45)ccc3C2=O)cc1` [Example 4] was tested, and the DC50 was 897 nM. `Cc1c(F)cc2[nH]ncc2c1-c1c(C2CC2)cc2c(N3C[C@@H]4C[C@H]3CN4)nc(OC3CCOCC3)nc2c1OCc1ccc(-c2cn([C@H](C(=O)N3C[C@H](O)C[C@H]3C(=O)N[C@@H](CO)c3ccc(F)cc3)C(C)C)nn2)cc1` [Example 13] was tested, and the DC50 was 151 nM. In the case of `CCc1ccncc1Oc1nc(N2C[C@@H]3C[C@H]2CN3)c2cc(C3CC3)c(-c3c(C)c(F)cc4[nH]ncc34)c(OCc3ccc(-c4cn([C@H](C(=O)N5C[C@H](O)C[C@H]5C(=O)N[C@@H](CO)c5ccc(-c6scnc6C)cc5)C(C)C)nn4)cc3)c2n1` [Example 25], the DC50 is reported as 44 nM.
